Our source for the IC50 values is paper PMC6213216, “AbeTx1 Is a Novel Sea Anemone Toxin with a Dual Mechanism of Action on Shaker-Type K^+ Channels Activation” (Marine Drugs, 2018).

One experiment concerns the target T1, rKV1.1 (Rattus norvegicus, UniProt P10499).
T1 construct: expressed in transfected cells; host or cells: Xenopus laevis oocytes injected with cRNA
The experiment in a line: Two-electrode voltage-clamp on Xenopus laevis oocytes expressing rKV1.1. The format is cell-based. Particulars: concentration-response curve, percentage blocked current fitted with Hill equation; TEVC oocytes, 0 mV from −90 mV; mean ± SE, n ≥ 3; SEM; read-out: KV1.1 IC50. Here is the method: (§1) The pharmacological effect of AbeTx1 was analyzed by heterologous expression of 12 voltage-gated potassium channels isoforms (rKV1.1, Genbank NM173095; rKV1.2, Genbank NM012970; hKV1.3, Genbank L23499; rKV1.4,Genbank NM012971; rKV1.5, Genbank NM012972; rKV1.6, Genbank NM575671; Shaker IR from Drosophila melanogaster, Genbank CG12348; rKV2.1, Genbank NM013186; hKV3.1, Genbank NM004976; rKV4.2, Genbank NM031730; rKV4.3, Genbank NM031739 and hERG, Genbank NM000238), and three voltage-gated sodium channel subtypes (rNaV1.2, Genbank NM012647; rNaV1.4, Genbank M26643 and BgNaV1.1, from Blattella germanica) (r, rat; h, human) in oocytes from Xenopus laevis. The linearized plasmids were transcribed using a T7 or SP6 mMESSAGE-mMACHINE transcription kit (Life Technologies, Austin, TX, USA). Oocytes were injected with 20–50 nL of cRNA at a concentration of 1 ng·nL^−1 using a microinjector (Drummond Scientific, Broomall, PA, USA). The oocytes were stored for 1–3 days at 16 °C until sufficient expression of voltage-gated ion channels was achieved. Oocytes were maintained in an ND96 solution (in mM: 96 NaCl, 2 KCl, 1.8 CaCl2, 2 MgCl2 and 5 HEPES; pH 7.4), supplemented with 50 µg·mL^−1 gentamicin sulfate.
(§2) Two-electrode voltage-clamp recordings were performed at room temperature (18–22 °C) using a Geneclamp 500 amplifier (Molecular Devices, Sunnyvale, CA, USA) controlled by a pClamp data acquisition system (Axon Instruments, Union City, CA, USA). ND96 was used as bath solution. Whole-cell currents from oocytes were recorded 1–3 days after injection. Voltage and current electrodes were filled with KCl (3 M). The resistance of both electrodes was kept between 0.8–1.0 MΩ. The elicited currents were filtered at 0.5 or 2 kHz using a four-pole low-pass Bessel filter. Leak subtraction was performed using a -P/4 protocol. KV1.1-KV1.6 and Shaker IR currents were evoked by 500 ms depolarization to 0 mV, followed by a 500 ms pulse to −50 mV, from a holding potential of −90 mV. KV2.1, KV3.1, KV4.2, and KV4.3 currents were elicited by 500 ms pulses to + 20 mV from a holding potential of −90 mV. Current traces of hERG channels were elicited by applying a +40 mV pulse for 2.5 s, followed by a step to −120 mV for 2.5 s. Sodium current traces were evoked by 100 ms depolarization steps from a holding potential of −90 mV to 0 mV. Concentration-response curves were constructed by adding different AbeTx1 or analogs concentrations directly to the bath solution. The percentage of the KV blockade was plotted against the logarithm of the applied concentrations and fitted with the Hill Equation (1):y = 100/[1 + (IC50/[toxin]) × h](1) where y is the amplitude of the toxin-induced effect, IC50 is the toxin concentration at half-maximal efficacy, [toxin] is the toxin concentration, and h is the Hill coefficient. To investigate the effects on the voltage dependence of activation, current traces were evoked by 10 mV depolarization steps from a holding potential of −90 mV. Data were normalized to the maximal K^+ current amplitude, plotted against prepulse potential, and fitted using the Boltzmann Equation (2):IK/Imax = [1 + (exp(Vg − V)/k] − 1(2) where Imax represents maximal potassium current (IK), Vg is the voltage corresponding to half-maximal current, and k is the slope factor. Each experimental data represents mean ± standard error of at least three oocytes (n ≥ 3) from different frogs. Effect of the toxin on current-voltage experiments was statistically examined by comparing the control condition and the presence of toxin using the Student’s paired t-test. P-values < 0.05 are considered to be statistically significant. Data were analyzed using Clampfit 10.4 (Molecular Devices, Sunnyvale, CA, USA) and Origin v8.1 software (Origin Lab, Northampton, MA, USA), under the institutional license of the University of São Paulo.
For orientation: Two-electrode voltage clamp holds a large cell at a set potential and records current.

A further experiment has as its target T2, rKV1.6 (Rattus norvegicus, UniProt P17659).
T2 construct: expressed in transfected cells; host or cells: Xenopus laevis oocytes injected with cRNA
The experiment in a line: Two-electrode voltage-clamp on Xenopus laevis oocytes expressing rKV1.6. The following applies: concentration-response curve, percentage blocked current fitted with Hill equation; TEVC oocytes, 0 mV from −90 mV; mean ± SE, n ≥ 3; SEM; read-out: KV1.6 IC50. The format is cell-based. Here is the method: as §1, §2

Positions of bridges follow the written chain, without caps; N, C: chain ends. Residues, ends and D or L forms follow the SMILES beside them.

T1 sequence (P10499 whole entry): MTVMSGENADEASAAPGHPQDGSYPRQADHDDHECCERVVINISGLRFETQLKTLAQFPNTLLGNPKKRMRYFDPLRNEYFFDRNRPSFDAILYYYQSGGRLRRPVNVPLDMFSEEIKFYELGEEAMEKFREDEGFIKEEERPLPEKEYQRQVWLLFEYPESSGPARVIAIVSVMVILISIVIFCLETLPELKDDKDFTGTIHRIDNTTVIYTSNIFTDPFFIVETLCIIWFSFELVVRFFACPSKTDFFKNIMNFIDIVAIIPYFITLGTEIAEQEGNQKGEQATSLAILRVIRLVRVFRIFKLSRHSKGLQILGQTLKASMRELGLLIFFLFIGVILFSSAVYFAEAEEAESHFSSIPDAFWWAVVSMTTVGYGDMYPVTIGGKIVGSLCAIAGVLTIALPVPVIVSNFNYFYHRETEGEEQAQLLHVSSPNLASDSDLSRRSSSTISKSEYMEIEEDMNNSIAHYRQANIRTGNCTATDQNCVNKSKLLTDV
T2 sequence (P17659 whole entry): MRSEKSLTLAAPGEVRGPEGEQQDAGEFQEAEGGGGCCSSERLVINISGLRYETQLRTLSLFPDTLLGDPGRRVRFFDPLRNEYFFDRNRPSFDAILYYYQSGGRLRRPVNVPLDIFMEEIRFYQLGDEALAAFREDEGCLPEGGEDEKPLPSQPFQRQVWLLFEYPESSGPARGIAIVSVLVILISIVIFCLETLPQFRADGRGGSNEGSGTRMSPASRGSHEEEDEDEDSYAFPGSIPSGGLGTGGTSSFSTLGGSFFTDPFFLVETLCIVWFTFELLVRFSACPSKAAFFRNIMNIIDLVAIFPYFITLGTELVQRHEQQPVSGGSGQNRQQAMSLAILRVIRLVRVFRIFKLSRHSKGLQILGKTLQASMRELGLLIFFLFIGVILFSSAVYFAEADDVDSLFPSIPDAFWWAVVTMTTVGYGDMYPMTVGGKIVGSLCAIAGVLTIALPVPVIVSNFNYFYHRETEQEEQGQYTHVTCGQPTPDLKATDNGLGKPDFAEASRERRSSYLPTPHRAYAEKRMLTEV

Take `C[C@@H]1NC(=O)CNC(=O)[C@H](CCCCN)NC(=O)[C@H](CO)NC(=O)[C@@H]2CSSC[C@H](NC1=O)C(=O)N[C@@H](CCCNC(=N)N)C(=O)N1CCC[C@H]1C(=O)N[C@@H](CCCCN)C(=O)N1CCC[C@H]1C(=O)N[C@@H](CC(N)=O)C(=O)N[C@H](C(=O)NCC(=O)O)CSSC[C@H](NC(=O)[C@@H](N)CCCNC(=N)N)C(=O)N[C@@H](CCCCN)C(=O)N[C@@H]([C@@H](C)O)C(=O)N2` [Arg9Ala] (H-RCKTCSKGACRPKPNCG-OH; disulfide 2-16, 5-10): the IC50 (usually the concentration needed to halve the response being measured) on rKV1.1 came out at 8.5 µM; on rKV1.6 it was 2.44 µM.
Regarding `C[C@@H]1NC(=O)[C@@H]2CSSC[C@H](NC(=O)[C@H]([C@@H](C)O)NC(=O)[C@H](CCCCN)NC(=O)[C@@H](NC(=O)[C@@H](N)CCCNC(=N)N)CSSC[C@@H](C(=O)NCC(=O)O)NC(=O)[C@H](CC(N)=O)NC(=O)[C@@H]3CCCN3C(=O)[C@H](CCCCN)NC(=O)[C@@H]3CCCN3C1=O)C(=O)N[C@@H](CO)C(=O)N[C@@H](CCCCN)C(=O)NCC(=O)N[C@@H](CCCNC(=N)N)C(=O)N2` [Arg11Ala] (H-RCKTCSKGRCAPKPNCG-OH; disulfide 2-16, 5-10), the IC50 turned out to be 21.5 µM on rKV1.1 and 0.811 ± 0.179 µM on rKV1.6.
